Measured values reported in patent US11707440B2 (priority 2017, dated 2023).
“And” between values parts separate entries of the source, which are not always exact repeats. Equal values may be shown once. “Also recorded” adds a separate entry of the source. Read-outs that look alike come from different tables or passages of the source. Marks after values point to notes of the source that are not given here.

Columns and labels:
[1] = for Stock solution stability: stock solutions
From the text: This example provides an LC-MS/MS method for the determination of ketamine and norketamine in sodium heparin human plasma using ketamine-d4 and norketamine-d4 as the respective internal standards (IS).

[2] = system: adult female Sprague Dawley rats, PCG/RSC; details: 3 hours after a single intraperitoneal injection (Jevtovic-Todorovic 2000); cited from earlier work
[3] = system: female Sprague-Dawley rats, PCG/RSC of the brain; assay: Single dose neurotoxicity study, intranasal instillation; details: for Clinical observation: Abnormal respiration / Clinical observation: Ataxia / Clinical observation: Catalepsy / Clinical observation: Chromodacryorrhea / Clinical observation: Decreased general activity / Clinical observation: Decubitus / Clinical observation: Increased general activity / Clinical observation: Narrowed palpebral fissure / Clinical observation: Piloerection / Clinical observation: Salivation (out of normal) / Clinical observation: audible respiration / Clinical observation: bradypnoea: single dose intranasal
Protocol: Esketamine HCl was instilled intranasally at doses of 0 (vehicle), 36, 54 or 72 mg (expressed as esketamine base) to female rats on a single day. The dose levels were obtained by 2, 3 or 4 subsequent intranasal instillations, respectively, into both nostrils at a volume of 50 μL per nostril. At each instillation, the second nostril was dosed immediately after the first nostril. The interval between subsequent instillations into both nostrils was 5 minutes.
The vehicle control group received 4 subsequent intranasal instillations of the vehicle into both nostrils (50 μL per nostril) with 5-minute intervals.
The injection volume was 5 mL/kg.
The vehicle- and the 36 and 54 mg-dosed groups consisted of 24 animals per group, while the 72 mg-dosed and positive control groups involved 30 animals per group. Four satellite animals were added to the esketamine HCl-dosed groups of main study animals for toxicokinetic (TK) purposes. In these animals the plasma exposure to esketamine was measured on the day of dosing at various time points up to and including 24 hours after the first instillation.
Prior to the perfusion, rats were anesthetized with isoflurane. After injection of 0.1 ml heparin, the blood of the rat was flushed out with a physiological saline solution by intraarterial insertion of a needle in the abdominal aorta. Thereafter the rat was perfused with glutaraldehyde 3% in potassium phosphate 0.09M and 1.4% sucrose. Due to logistic constraints at maximum 30 animals could undergo the whole-body perfusion procedure on a given day. Therefore, a staggered start of treatment was applied to all 5 groups of main study animals. Consequently, subgroups of 4 main study animals of the vehicle- and 36 and 54 mg-dosed groups, and 5 main study animals of the 72 mg-dosed and positive control groups, were dosed on 6 consecutive days, respectively.
The vehicle control, positive control, and esketamine HCl-dosed animals were sacrificed at either 48 hours (i.e., the first 12 or 15 rats per group) or 96 hours after the dose administration time (i.e., the last 12 or 15 rats per group). The brain tissue of the vehicle control-, positive control- and esketamine HCl-treated rats were processed at the same time and handled in the same way in batches of 4 or 5 animals per group.
(§1) Furthermore, clinical observations were recorded for the esketamine HCl-dosed rats on the day of dosing at 0 till 5 minutes, 15 and 30 minutes, and at 1, 2, 4, 6 hours post-dose, at the end of the working day and at 24 hours after the last instillation in the single dose study and on the first day of dosing, after one week and towards the end of the dosing period in the repeated dose study. Body weight and body weight gain were measured daily. Food consumption was measured weekly in the repeated dose study.
(§2) On the day of terminal kill, a complete physical examination was performed on the rats in fasted condition and body weight was recorded. The surviving animals were anaesthetized by inhalation of an isoflurane (IsoFlo® Zoetis, Belgium)/oxygen mixture and killed by exsanguination via the carotid artery. […] All terminally killed rats or those killed pre-terminally were perfused with 4% paraformaldehyde in the single dose study and with glutaraldehyde 3% in potassium phosphate buffer 0.09 M with 1.4% sucrose in the repeated dose study.
(§3) Brain tissue was sampled and processed routinely. The trimmed and embedded tissue was sectioned and stained with hematoxylin-eosin (HE). Histoprocessing and staining were carried out in three batches of 4 animals per group (each batch thus containing 4 animals from vehicle control-, positive control- and the three esketamine HCl-treated groups). In the single dose study duplicate brain sections were stained with Fluoro-Jade (FJ).
All tissues showing gross abnormalities were examined macroscopically.

[4] = system: female Sprague-Dawley rats, PCG/RSC of the brain; assay: 14-day repeated dose neurotoxicity study, intranasal instillation; details: for Clinical observation: Abnormal respiration / Clinical observation: Ataxia / Clinical observation: Chromodacryorrhea / Clinical observation: Decreased general activity / Clinical observation: Decubitus / Clinical observation: Increased general activity / Clinical observation: Salivation (out of normal) / Clinical observation: audible respiration / Clinical observation: bradypnoea: 14 days
Protocol: Esketamine HCl was administered into each nostril of female rats at a volume of 50 μl per nostril either once, twice or thrice daily by intranasal instillation for 14 consecutive days at doses of 0 (vehicle), 18, 36 or 54 mg/day. At each instillation, the second nostril was dosed immediately after the first nostril. The interval between subsequent instillations into both nostrils was 5 minutes when dosed 2 or 3 times per day.
The vehicle control group received 3 subsequent intranasal instillations of the vehicle into both nostrils (50 μL per nostril) with 5-minute intervals for 14 consecutive days.
The positive control group received a single subcutaneous injection of (+)MK-801 at 48 hours prior to the necropsy of the vehicle control and esketamine HCl-treated animals.
Each group of main study animals consisted of 12 female rats. Four satellite animals were added to the esketamine HCl-dosed groups of main study animals for TK purposes. The plasma exposure to esketamine was measured in these animals on the first and the last day of dosing at various time points up to and including 24 hours after the first instillation.
Due to logistic constraints associated with the whole body perfusion procedure of the animals at necropsy, a staggered start was applied to the study. Consequently, all 5 groups of main study animals were divided into three subgroups of 4 animals each. For each of these subgroups treatment started on a different day. The perfusion procedure is the is the same as described for the single dose study.
All vehicle- and esketamine HCl-treated animals were sacrificed at 48 hours after the last instillation. […] The brain tissue of the vehicle control-, positive control- and esketamine HCl-treated rats were processed at the same time and handled in the same way in batches of 4 animals per group.
as §1, §2, §3
All tissues showing gross abnormalities were examined […]. Histopathological examination was performed on 7 levels of brain tissue according to Bolon (2013. Toxicol. Pathol. 41(7), 1028-1048) from the vehicle control-, positive control-, and high dose esketamine HCl-treated groups in the single dose study, and in all groups in the repeated dose study.

[5] = Maximum solubility of esketamine HCl; details: room temperature, pH 4.5; factor 1.15
Protocol: The clinical investigational product is an aqueous solution of the drug substance, esketamine hydrochloride (HCl). This formulation is administered intranasally to patients using a dual nasal spray device, which delivers one spray into each nostril. […] The formulation was stored at 37° C. for stability reasons until dosing.

NMDA receptor = details: cited from earlier work

CNC1(c2ccccc2Cl)CCCCC1=O (racemic) [ketamine, reference compound]
QC sample freeze/thaw stability ([1]; freeze (−20° C.)/thaw (ice-water bath)): 3 freeze (−20° C.)/thaw (ice-water bath) cycles
QC sample freeze/thaw stability ([1]; freeze (−20° C.)/thaw (room temperature)): 3 freeze (−20° C.)/thaw (room temperature) cycles
QC sample bench-top stability ([1]; human plasma, room temperature): 68.5 hours at room temp
QC sample long-term storage stability ([1]; human plasma, −20° C.): 1552 days at −20 °C
Processed sample stability ([1]; room temperature): 146.5 hours at room temperature
Whole Blood Stability ([1]; room temperature and ice-water bath (0-4° C.)): 120 minutes at room temperature and in an ice-water bath
Stock solution stability (spike solutions) ([1]; spike solutions, −20° C.): 610 days at −20 °C for ketamine/norketamine spike solutions
Stock solution stability ([1]; room temperature under white light): 6 h
Stock solution stability ([1]; −20° C.): 15100 h
ED50-value for the induction of neuronal vacuolation in the PCG/RSC [2]: 47.5 mg/kg body weight

CN[C@]1(c2ccccc2Cl)CCCCC1=O.Cl [esketamine HCl, (S)-2-(2-chlorophenyl)-2-(methylamino)cyclohexanone hydrochloride]
Duration of severely decreased activity with decubitus, bradypnea, ptosis and catalepsy (anesthesia) ([3]; 36 mg): 15 to 30 min
Clinical observation: Abnormal respiration ([3]; 36 mg): 22/24***
Clinical observation: Ataxia ([3]; 36 mg): 24/24***
Clinical observation: Catalepsy ([3]; 36 mg): 20/24***
Clinical observation: Chromodacryorrhea ([3]; 36 mg): 0/24
Clinical observation: Decreased general activity ([3]; 36 mg): 23/24***
Clinical observation: Decubitus ([3]; 36 mg): 23/24***
Clinical observation: Increased general activity ([3]; 36 mg): 24/24***
Clinical observation: Narrowed palpebral fissure ([3]; 36 mg): 7/24**
Clinical observation: Piloerection ([3]; 36 mg): 0/24
Clinical observation: Salivation (out of normal) ([3]; 36 mg): 23/24***
Clinical observation: audible respiration ([3]; 36 mg): 10/24***
Clinical observation: bradypnoea ([3]; 36 mg): 22/24***
Clinical observation: Abnormal respiration ([3]; 54 mg): 22/24***
Clinical observation: Ataxia ([3]; 54 mg): 24/24***
Clinical observation: Catalepsy ([3]; 54 mg): 23/24***
Clinical observation: Chromodacryorrhea ([3]; 54 mg): 0/24
Clinical observation: Decreased general activity ([3]; 54 mg): 23/24***
Clinical observation: Decubitus ([3]; 54 mg): 23/24***
Clinical observation: Increased general activity ([3]; 54 mg): 24/24***
Clinical observation: Narrowed palpebral fissure ([3]; 54 mg): 10/24***
Clinical observation: Piloerection ([3]; 54 mg): 0/24
Clinical observation: Salivation (out of normal) ([3]; 54 mg): 24/24***
Clinical observation: audible respiration ([3]; 54 mg): 3/24
Clinical observation: bradypnoea ([3]; 54 mg): 21/24***
Duration of ataxia (and hyperactivity) after the decrease in activity subsided ([3]; 54 mg, hydrochloride): 1.5 to 3 h and 1 to 3 h
Duration of severely decreased activity with decubitus, bradypnea, ptosis and catalepsy (anesthesia) ([3]; 54 mg, hydrochloride): 30 minutes to one hour and 30 minutes to an hour
Duration of ataxia (and hyperactivity) after the decrease in activity subsided ([3]; 72 mg): up to 3 hours or longer
Clinical observation: Abnormal respiration ([3]; 72 mg): 30/30***
Clinical observation: Catalepsy ([3]; 72 mg): 30/30***
Clinical observation: Chromodacryorrhea ([3]; 72 mg): 0/30
Clinical observation: Decreased general activity ([3]; 72 mg): 30/30***
Clinical observation: Decubitus ([3]; 72 mg): 30/30***
Clinical observation: Increased general activity ([3]; 72 mg): 29/30***
Clinical observation: Narrowed palpebral fissure ([3]; 72 mg): 22/30***
Clinical observation: Piloerection ([3]; 72 mg): 0/30
Clinical observation: Salivation (out of normal) ([3]; 72 mg): 29/30***
Clinical observation: audible respiration ([3]; 72 mg): 2/30
Clinical observation: bradypnoea ([3]; 72 mg): 30/30***
Mortality ([3]; single dose 72 mg, within 30 minutes after 4 instillations): two main study animals and two satellite TK animals died
Mortality ([3]; single dose up to 54 mg): No test article related mortality
Brain histopathology (neuronal necrosis, Olney lesions) ([3]; single dose up to 72 mg, 48 and 96 hours post-dose, hydrochloride): no morphological evidence of neuronal degeneration; also recorded: histopathological lesions were absent; also recorded: No signs of neuronal necrosis; also recorded: no neuropathological lesions were observed
Clinical observation: Abnormal respiration ([4]; 18 mg/day intranasal): 2/12
Clinical observation: Ataxia ([4]; 18 mg/day intranasal): 12/12***
Clinical observation: Chromodacryorrhea ([4]; 18 mg/day intranasal): 0/12
Clinical observation: Decreased general activity ([4]; 18 mg/day intranasal): 5/12
Clinical observation: Decubitus ([4]; 18 mg/day intranasal): 0/12
Clinical observation: Increased general activity ([4]; 18 mg/day intranasal): 12/12***
Clinical observation: Salivation (out of normal) ([4]; 18 mg/day intranasal): 12/12***
Clinical observation: audible respiration ([4]; 18 mg/day intranasal): 2/12
Clinical observation: bradypnoea ([4]; 18 mg/day intranasal): 0/12
Clinical observation: Abnormal respiration ([4]; 36 mg/day intranasal): 11/12***
Clinical observation: Ataxia ([4]; 36 mg/day intranasal): 12/12***
Clinical observation: Chromodacryorrhea ([4]; 36 mg/day intranasal): 0/12
Clinical observation: Decreased general activity ([4]; 36 mg/day intranasal): 12/12***
Clinical observation: Decubitus ([4]; 36 mg/day intranasal): 2/12
Clinical observation: Increased general activity ([4]; 36 mg/day intranasal): 12/12***
Clinical observation: Salivation (out of normal) ([4]; 36 mg/day intranasal): 12/12***
Clinical observation: audible respiration ([4]; 36 mg/day intranasal): 6/12**
Clinical observation: bradypnoea ([4]; 36 mg/day intranasal): 11/12***
Clinical observation: Abnormal respiration ([4]; 54 mg/day intranasal): 12/12***
Clinical observation: Ataxia ([4]; 54 mg/day intranasal): 12/12***
Clinical observation: Chromodacryorrhea ([4]; 54 mg/day intranasal): 0/12
Clinical observation: Decreased general activity ([4]; 54 mg/day intranasal): 12/12***
Clinical observation: Decubitus ([4]; 54 mg/day intranasal): 8/12***
Clinical observation: Increased general activity ([4]; 54 mg/day intranasal): 12/12***
Clinical observation: Salivation (out of normal) ([4]; 54 mg/day intranasal): 12/12***
Clinical observation: audible respiration ([4]; 54 mg/day intranasal): 6/12**
Clinical observation: bradypnoea ([4]; 54 mg/day intranasal): 12/12***
Mortality ([4]; up to 54 mg/day for 14 days): No test article related mortality occurred
Brain histopathology (neuronal necrosis, Olney lesions) ([4]; up to 54 mg/day, 48 hours after the last instillation, hydrochloride): no morphological evidence of neuronal degeneration; also recorded: no histopathological lesions were noted; also recorded: No histopathological lesions were found; also recorded: absence of neuronal necrosis
Maximum solubility expressed as base [5]: 180 mg esketamine base/mL

(+)MK-801 maleate
Potency of the (+)-enantiomer relative to the (−)-enantiomer (NMDA receptor): 7 times
